The results in this text go back to patent EP4563146A1 (IRBM S.P.A., priority 2023, dated 2025).

Assay [1] deals with Japanese encephalitis virus (JEV)-NS2B-NS3 protease (Japanese encephalitis virus, UniProt P32886, DEL1469-1493). Kind of assay: JEV protease inhibition assay. It is filed as biochemical.
A further assay concerns ZIKV replicon. Briefly: ZIKV replication inhibition assay (NanoLuc replicon in Vero cells). Particulars: 72 h. (In general: In antiviral work, replicon cells carry a viral genome segment that copies itself.)
Assay [2] addresses T1, West Nile Virus (WNV) NS2B-NS3 protease (West Nile virus, UniProt Q9Q6P4).
T1 construct: NS2B1423-1470); purchased R&D 2907-SE-020
Briefly: WNV protease inhibition assay. It is filed as biochemical. Particulars: Table 4; letter codes for IC50. The text has this:
WNV protease inhibition assay

[3] abbreviates: Zika virus, Vero, read-out: ZIKA Cell_Nanoluc.
The mark [4] stands for this setting: read-out: JEV - NS3 protease, 600 nM enzyme, 10 µM Pyr-RTKR-AMC substrate, 25 °C.
The mark [5] stands for this setting: Zika virus, Vero, read-out: ZIKA Cell_Nanoluc, Vero cells with stable ZIKV replicon, 72 h, Nano-Glo readout.

Read-outs that look alike come from different tables or passages of the source.

`N[C@H]1C[C@H]([n+]2cc([N-]C(=O)Nc3cc(NC(=O)Cc4ccccc4)cc(C(F)(F)F)c3)on2)C1` [Example 26, (3-((1R,3R)-3-Aminocyclobutyl)-1,2,3-oxadiazol-3-ium-5-yl)((3-(2-phenylacetamido)-5-(trifluoromethyl)phenyl)carbamoyl)amide]: the IC50 in assay [1] lay in the range of 1 to 20 µM. Besides, in the assay with ZIKV replicon (setting [3]), the EC50 is above 20 µM.
In the case of `COc1ncc(-c2ccc(C[n+]3cc([N-]C(=O)Nc4cc(NC(=O)Cc5noc6ccccc56)cc(C(F)(F)F)c4)on3)cc2)c(C)n1` [Example 20], the IC50 in assay [1] (setting [4]) is above 20 µM. In the assay on ZIKV replicon (setting [3]), the EC50 is above 20 µM.
In turn, `NC[C@H]1CC[C@@H]([n+]2cc([N-]C(=O)Nc3cc(N4CCC(c5ccccc5)C4=O)cc(C(F)(F)F)c3)on2)CC1` (stereo partly drawn) [Example 119, (3-((1S,4S)-4-(Aminomethyl)cyclohexyl)-1,2,3-oxadiazol-3-ium-5-yl)((3-(2-oxo-3-phenylpyrrolidin-1-yl)-5-(trifluoromethyl)phenyl)-carbamoyl)amide] showed an IC50 in assay [1] of 1 to 20 µM. The EC50 in the assay on ZIKV replicon (setting [3]) was 1 to 20 µM.
`CN(C)C[C@H]1CC[C@@H]([n+]2cc([N-]C(=O)Nc3cc(NC(=O)Cc4ccccc4)cc(C(F)(F)F)c3)on2)CC1` [Example 61, (3-((1S,4S)- -4-((Dimethylamino)methyl)cyclohexyl)-1,2,3-oxadiazol-3-ium-5-yl)((3-(2-phenylacetamido)-5-(trifluoromethyl)phenyl)carbamoyl)amide] displayed an IC50 in assay [1] of 1 to 20 µM. The EC50 in the assay with ZIKV replicon (setting [3]) was 1 to 20 µM.
Regarding `CN(C)C[C@H]1CC[C@H]([n+]2cc([N-]C(=O)Nc3cc(NC(=O)Cc4ccccc4)cc(C(F)(F)F)c3)on2)CC1` [Example 94, (3-((1R,4R)-4-((Dimethylamino)methyl)-cyclohexyl)-1,2,3-oxadiazol-3-ium-5-yl)((3-(2-phenylacetamido)-5-(trifluoromethyl)phenyl)-carbamoyl)amide], in assay [1] (setting [4]), the IC50 lay within 1 to 20 µM.
With `O=C(Cc1ccccc1)Nc1cc(NC(=O)[N-]c2c[n+]([C@H]3CC[C@@H](CN4C(=O)c5ccccc5C4=O)CC3)no2)cc(C(F)(F)F)c1` [Example 60, (3-((1S,4S)-4-((1,3-Dioxoisoindolin-2-yl)methyl)cyclohexyl)-1,2,3-oxadiazol-3-ium-5-yl)((3-(2-phenylacetamido)-5-(trifluoromethyl)-phenyl)carbamoyl)amide], the IC50 in assay [1] was 1 to 20 µM. The EC50 in the assay on ZIKV replicon (setting [3]) fell in the range of 1 to 20 µM.
In assay [1], `CN(C)[C@H]1CC[C@H]([n+]2cc([N-]C(=O)Nc3cc(NC(=O)Cc4ccccc4)cc(C(F)(F)F)c3)on2)CC1` [Example 96, (3-((1R,4R)-4-(dimethylamino)cyclohexyl)-1,2,3-oxadiazol-3-ium-5-yl)((3-(2-phenylacetamido)-5-(trifluoromethyl)phenyl)-carbamoyl)amide] showed an IC50 of 1 to 20 µM. For the same molecule, in the assay on ZIKV replicon (setting [3]), the EC50 was in the range of 1 to 20 µM.
Turning to `N[C@H]1CC[C@@H]([n+]2cc([N-]C(=O)Nc3cc(NC(=O)Cc4ccccc4)cc(C(F)(F)F)c3)on2)CC1` [Example 91, (3-((1S,4S)-4-Aminocyclohexyl)-1,2,3-oxadiazol-3-ium-5-yl)((3-(2-phenylacetamido)-5-(trifluoromethyl)phenyl)carbamoyl)amide], the IC50 in assay [1] is 1 to 20 µM. Besides, the EC50 in the assay on ZIKV replicon (setting [3]) is above 20 µM.
The corresponding values for `CN(C)C[C@H]1CC[C@@H]([n+]2cc([N-]C(=O)Nc3cc(N4CCC(c5ccccc5)C4=O)cc(C(F)(F)F)c3)on2)CC1` (stereo partly drawn) [Example 138, (3-((1S,4S)-4-((Dimethylamino)methyl)-cyclohexyl)-1,2,3-oxadiazol-3-ium-5-yl)((3-(2-oxo-3-phenylpyrrolidin-1-yl)-5-(trifluoromethyl)-phenyl)carbamoyl)amide] are 1 to 20 µM and 1 to 20 µM.
In assay [1], `N[C@H]1CC[C@H](C[n+]2cc([N-]C(=O)Nc3cc(N4CC[C@H](c5ccccc5)C4=O)cc(C(F)(F)F)c3)on2)CC1` [Example 143, (3-(((1R,4R)-4-Aminocyclohexyl)methyl)-1,2,3-oxadiazol-3-ium-5-yl)((3-((R)-2-oxo-3-phenylpyrrolidin-1-yl)-5-(trifluoromethyl)-phenyl)carbamoyl)amide] showed an IC50 of 1 to 20 µM. Besides, the EC50 in the assay with ZIKV replicon (setting [3]) was above 20 µM.
On to `COc1ncc(-c2ccc(C[n+]3cc([N-]C(=O)Nc4cc(NC(=O)Cc5ccc(CN)cc5)cc(C(F)(F)F)c4)on3)cc2)c(C)n1` [Example 22], for which, in assay [1] (setting [4]), the IC50 is above 20 µM. In addition, the EC50 with ZIKV replicon (setting [3]) was in the range of 1 to 20 µM.
As for `O=C([N-]c1c[n+](C[C@H]2CC[C@H](NCC(F)(F)F)CC2)no1)Nc1cc(N2CC[C@H](c3ccccc3)C2=O)cc(C(F)(F)F)c1` [Example 144, ((3-((R)-2-Oxo-3-phenylpyrrolidin-1-yl)-5-(trifluoromethyl)phenyl)carbamoyl)(3-(((1r,4r)-4-((2,2,2-trifluoroethyl)amino)cyclohexyl)-methyl)-1,2,3-oxadiazol-3-ium-5-yl)amide], the IC50 in assay [1] lay within 1 to 20 µM. For the same molecule, the EC50 in the assay on ZIKV replicon (setting [3]) lay in the range of 0.1 to 1 µM.
Molecule `NC[C@H]1CC[C@H]([n+]2cc([N-]C(=O)Nc3cc(NC(=O)Cc4ccccc4)cc(C(F)(F)F)c3)on2)CC1` [Example 93, (3-((1R,4R)-4-(Aminomethyl)cyclohexyl)-1,2,3-oxadiazol-3-ium-5-yl)((3-(2-phenyl-acetamido)-5-(trifluoromethyl)phenyl)-carbamoyl)amide] showed an IC50 in assay [1] of 0.1 to 1 µM. The EC50 in the assay on ZIKV replicon (setting [3]) lay within 1 to 20 µM.
On to `N[C@H]1CC[C@H]([n+]2cc([N-]C(=O)Nc3cc(NC(=O)Cc4ccccc4)cc(C(F)(F)F)c3)on2)CC1` [Example 92, (3-((1R,4R)-4-Aminocyclohexyl)-1,2,3-oxadiazol-3-ium-5-yl)((3-(2-phenylacetamido)-5-(trifluoromethyl)phenyl)carbamoyl)amide], for which, in assay [1], the IC50 fell in the range of 1 to 20 µM. Also, the EC50 in the assay with ZIKV replicon (setting [3]) is above 20 µM.
Regarding `CC(=O)NC[C@H]1CC[C@@H]([n+]2cc([N-]C(=O)Nc3cc(NC(=O)Cc4ccccc4)cc(C(F)(F)F)c3)on2)CC1` [Example 62, (3-((1S,4S)-4-(Acetamidomethyl)cyclohexyl)-1,2,3-oxadiazol-3-ium-5-yl)((3-(2-phenylacetamido)-5-(trifluoromethyl)phenyl)carbamoyl)amide], in assay [1], the IC50 was 1 to 20 µM. Further, the EC50 with ZIKV replicon (setting [3]) is above 20 µM.
Take `O=C([N-]c1c[n+]([C@H]2CC[C@@H](CNCC(F)(F)F)CC2)no1)Nc1cc(N2CCC(c3ccccc3)C2=O)cc(C(F)(F)F)c1` (stereo partly drawn) [Example 135, ((3-(2-Oxo-3-phenylpyrrolidin-1-yl)-5-(trifluoromethyl)phenyl)carbamoyl)(3-((1S,4S)-4-(((2,2,2-trifluoroethyl)amino)methyl)-cyclohexyl)-1,2,3-oxadiazol-3-ium-5-yl)amide]: the IC50 in assay [1] was above 20 µM. Moreover, the EC50 in the assay with ZIKV replicon (setting [3]) was 1 to 20 µM.
Consider `CN(C)[C@H]1C[C@H]([n+]2cc([N-]C(=O)Nc3cc(NC(=O)Cc4ccccc4)cc(C(F)(F)F)c3)on2)C1` [Example 55, (3-((1R3R)-3-(Dimethylamino)cyclobutyl)-1,2,3-oxadiazol-3-ium-5-yl)((3-(2-phenyl-acetamido)-5-(trifluoromethyl)phenyl)-carbamoyl)amide], for which, in assay [1], the IC50 lay in the range of 1 to 20 µM. Further, the EC50 in the assay on ZIKV replicon (setting [3]) was in the range of 1 to 20 µM.
On to `Cc1ccccc1CC(=O)Nc1cc(NC(=O)[N-]c2c[n+]([C@H]3CCC[C@H](c4cncnc4)C3)no2)cc(C(F)(F)F)c1` [Example 221, (3-((1S,3S)-3-(Pyrimidin-5-yl)cyclohexyl)-1,2,3-oxadiazol-3-ium-5-yl)((3-(2-(o-tolyl)acetamido)-5-(trifluoromethyl)phenyl)carbamoyl)amide], for which the IC50 in assay [2] fell in the range of 0.1 to 1 µM. Also, the EC50 with ZIKV replicon (setting [5]) is 1 to 20 µM.
Turning to `COc1ccccc1CC(=O)Nc1cc(NC(=O)[N-]c2c[n+](C3CCC(CN(C)C)CC3)no2)cc(C(F)(F)F)c1` [Example 153, (3-((1R,4R)-4-((Dimethylamino)methyl)-cyclohexyl)-1,2,3-oxadiazol-3-ium-5-yl)((3-(2-(2-methoxyphenyl)acetamido)-5-(trifluoromethyl)-phenyl)carbamoyl)amide], the IC50 in assay [2] fell in the range of 0.1 to 1 µM. Moreover, the EC50 with ZIKV replicon (read-out: ZIKA Cell_Nanoluc, Vero cells with stable ZIKV replicon, Nano-Glo readout) lay in the range of 1 to 20 µM.
`Cc1ccccc1CC(=O)Nc1cc(NC(=O)[N-]c2c[n+]([C@H]3CC[C@H](N(C)C)CC3)no2)cc(C(F)(F)F)c1` [Example 257, (3-((1R,4R)-4-(Dimethylamino)cyclohexyl)-1,2,3-oxadiazol-3-ium-5-yl)((3-(2-(o-tolyl)-acetamido)-5-(trifluoromethyl)phenyl)-carbamoyl)amide]: the IC50 in assay [2] was below 0.1 µM. Besides, the EC50 with ZIKV replicon (setting [3]) is 1 to 20 µM.
`CN1CCc2ccccc2C1C[n+]1cc([N-]C(=O)Nc2ccnc(C(F)(F)F)c2)on1` (racemic) [Example 181, rac-(3-((2-Methyl-1,2,3,4-tetrahydroisoquinolin-1-yl)methyl)-1,2,3-oxadiazol-3-ium-5-yl)((2-(trifluoromethyl)pyridin-4-yl)carbamoyl)amide] came in with an IC50 in assay [2] below 0.1 µM. Moreover, in the assay on ZIKV replicon (setting [5]), the EC50 lay within 0.1 to 1 µM.
`O=C([N-]c1c[n+](CC2CCCc3ccccc32)no1)Nc1ccnc(C(F)(F)F)c1` (racemic) [Example 200, Rac-(3-((1,2,3,4-Tetrahydronaphthalen-1-yl)methyl)-1,2,3-oxadiazol-3-ium-5-yl)((2-(trifluoromethyl)pyridin-4-yl)carbamoyl)amide] showed an IC50 in assay [2] of 0.1 to 1 µM. Moreover, in the assay on ZIKV replicon (setting [5]), the EC50 was 0.1 to 1 µM.
In turn, `CN1c2ccccc2CCC1C[n+]1cc([N-]C(=O)Nc2ccnc(C(F)(F)F)c2)on1` (racemic) [Example 178, rac-(3-((1-Methyl-1,2,3,4-tetrahydroquinolin-2-yl)methyl)-1,2,3-oxadiazol-3-ium-5-yl)((2-(trifluoromethyl)pyridin-4-yl)carbamoyl)amide] yielded an IC50 in assay [2] of 0.1 to 1 µM. Further, in the assay with ZIKV replicon (setting [5]), the EC50 is 0.1 to 1 µM.
